Laboratory results as given in ChEMBL document CHEMBL5512630, “The mechanism of UNC-51-like kinase 1 and the applications of small molecule modulators in cancer treatment” (Eur J Med Chem, 2024).
pIC50: −log10 of the molar value.

Key:
[1] = test system: Non-small cell lung cancer cell line; test: Antiproliferative activity against Non-small cell lung cancer cells (unknown origin); type: functional, cell-based
[2] = biological target: T1, Serine/threonine-protein kinase ULK1 (Homo sapiens) (UniProt O75385); test: Inhibition of ULK1 (unknown origin) relative to control; details: concentration not given here
T1 sequence (whole entry): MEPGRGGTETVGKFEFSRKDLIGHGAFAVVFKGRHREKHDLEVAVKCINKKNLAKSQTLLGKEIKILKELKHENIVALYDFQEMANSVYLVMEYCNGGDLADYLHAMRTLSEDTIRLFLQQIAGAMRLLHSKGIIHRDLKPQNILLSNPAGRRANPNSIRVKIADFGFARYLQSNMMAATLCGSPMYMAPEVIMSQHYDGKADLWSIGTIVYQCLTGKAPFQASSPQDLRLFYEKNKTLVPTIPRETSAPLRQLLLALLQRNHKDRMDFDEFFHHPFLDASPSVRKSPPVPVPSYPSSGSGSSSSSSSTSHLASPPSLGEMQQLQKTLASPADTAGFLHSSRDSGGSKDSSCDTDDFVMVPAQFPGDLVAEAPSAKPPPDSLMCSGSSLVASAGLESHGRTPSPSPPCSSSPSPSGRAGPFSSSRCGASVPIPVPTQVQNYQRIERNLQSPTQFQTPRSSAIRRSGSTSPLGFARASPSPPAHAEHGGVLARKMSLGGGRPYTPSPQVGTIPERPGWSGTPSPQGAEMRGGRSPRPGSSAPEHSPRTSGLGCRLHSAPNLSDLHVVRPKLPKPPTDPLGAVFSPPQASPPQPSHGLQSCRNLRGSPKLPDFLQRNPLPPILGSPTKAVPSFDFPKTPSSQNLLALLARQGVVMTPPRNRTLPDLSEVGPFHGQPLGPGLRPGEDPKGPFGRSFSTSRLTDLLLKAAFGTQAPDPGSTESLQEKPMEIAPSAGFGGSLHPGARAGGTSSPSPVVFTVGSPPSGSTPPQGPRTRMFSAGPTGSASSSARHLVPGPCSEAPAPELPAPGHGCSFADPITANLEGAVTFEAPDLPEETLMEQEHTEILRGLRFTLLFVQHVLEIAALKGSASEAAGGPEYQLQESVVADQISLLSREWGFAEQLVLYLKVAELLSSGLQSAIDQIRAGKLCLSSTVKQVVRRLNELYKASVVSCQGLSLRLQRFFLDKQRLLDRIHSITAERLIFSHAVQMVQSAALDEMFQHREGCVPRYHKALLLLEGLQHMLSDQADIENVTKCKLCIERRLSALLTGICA

C=CC(=O)Nc1cc(Nc2nccc(-c3cn(C)c4ccccc34)n2)c(OC)cc1N(C)CCN(C)C [OSIMERTINIB]
pIC50 [1]: 7.39

O=c1c(O)c(-c2ccc(O)c(O)c2)oc2cc(O)ccc12
inhibition [2]: 75%
